# Experimental data reported in PubChem BioAssay AID1963979 (Molecular Pharmacology Branch, DTP, NCI, 2024).
# Tested on: 361931-004-R-J1-PDC multicell spheroid viability
# Experiment: Anticancer human tumor 361931-004-R-J1-PDC patient-derived colon adenocarcinoma cell line growth inhibition [PI3K]
# Conditions: for IC50: curve of first compound; for viability, T/C: stronger effect = lower value
# Text: Combinatorial screen of targeted agents with the PI3K inhibitors inavolisib, alpelisib, duvelisib, and copanlisib in multi-cell type tumor spheroids
# A high-throughput screen of multi-cell type tumor spheroids was designed to identify active combinations of targeted small molecules and PI3K pathway inhibitors. Complex spheroids include a stromal component modeled by human endothelial cells (HUVEC) and fibroblasts modeled by human mesenchymal stem cells (MSCs). The concentration ranges selected for each drug and investigational agent were based upon clinically achievable concentrations if the clinical Cmax of the agent was known.
# Compounds. The drugs and investigational agents: inavolisib (NSC800729), alpelisib (NSC765974), duvelisib (NSC772469), copanlisib (NSC816437), ipatasertib (NSC767898), afuresertib (NSC778305), talazoparib (NSC767125), sapanisertib (NSC764658), selumetinib (NSC741078), tovorafenib (DAY101, NSC766906), vemurafenib (NSC761431), ravoxertinib (NSC781343), sotorasib (NSC818433), MRTX1133 (NSC 836407), abemaciclib (NSC 768073), palbociclib (NSC758247), venetoclax (NSC 766270), SY5609 (NSC837396), enzalutamide (NSC755605), and darolutamide (NSC825331), were obtained from the National Cancer Institute (NCI) Developmental Therapeutics Program Chemical Repository. The FDA-approved anticancer drug set is available from the NCI Developmental Therapeutics Program. […] The stock solutions were prepared in dimethyl sulfoxide (DMSO, Sigma-Aldrich, St. Louis, MO, cat. D2650) at 800-fold the tested concentration and stored at -70 degrees C prior to their use. All drugs and investigational agents were tested over a range starting from a high concentration at or near the clinical Cmax and decreasing in half-log increments. If the clinical Cmax for an agent had not been determined, the highest concentration tested was 10 microM.
# Cell Culture. All cells were maintained in an incubator at 37 degrees C and 5% CO2 with 95% humidity. The PDC lines were cultured according to standard operating procedures established by the NCI PDMR (https://pdmr.cancer.gov/sops/default.htm). All PDCs were thawed and cultured in Matrigel-coated flasks prepared with a working solution of 1X Ham's F-12 nutrient mix, without supplementation (Invitrogen, Waltham, MA, cat. 11765054), 100 U/mL penicillin-streptomycin (Invitrogen, cat. 15140122), and 2.5% Matrigel (Corning Inc., Corning, NY, cat. 354248) for the first three passages. The 354836-022-R-J1-PDC, 475296-252-R-J1-PDC, and 997726-040-R-J2-PDC lines were cultured in 6A media, which includes advanced DMEM/F-12 (Thermo Fisher Scientific, cat. 12634028), 10 mM HEPES (Thermo Fisher Scientific, cat. 15630080), 1X GlutaMAX supplement (Thermo Fisher Scientific, cat. 35050061), 0.1 mg/mL primocin (InvivoGen, San Diego, CA, cat. ant-pm-2), 10% defined fetal bovine serum, heat inactivated (HyClone Laboratories Inc., Logan, UT, cat. SH30070.03HI), 50% L-WRN conditioned media (ATCC, cat. CRL-3276), 1.25 mM N-Acetyl-L-cysteine (Sigma-Aldrich, cat. A9165), 10 mM nicotinamide (Sigma-Aldrich, cat. N0636), 1X B-27 supplement (Thermo Fisher Scientific, cat. 17504044), 1X N-2 supplement (Thermo Fisher Scientific, cat. 17502048), and 10 microM Y-27632 dihydrochloride (Tocris Bioscience, Bristol, United Kingdom, cat. 1254). The 624824-186-R-J2-PDC line was cultured in 6C/Colon 1B media, which includes all 6A media components plus 50 ng/mL human EGF recombinant protein (Thermo Fisher Scientific, cat. PHG0311). […]
# [1] = second compound 0.0316 µM, first compound 0.0316 µM
# [2] = second compound 0.0316 µM, first compound 0.1 µM
# [3] = second compound 0.0316 µM, first compound 0.316 µM
# [4] = second compound 0.0316 µM, first compound 1 µM
# [5] = second compound 0.0316 µM, first compound 3.16 µM
# [6] = second compound 0.0316 µM, first compound 10 µM
# [7] = second compound 0.1 µM, first compound 0.0316 µM
# [8] = second compound 0.1 µM, first compound 0.1 µM
# [9] = second compound 0.1 µM, first compound 0.316 µM
# [10] = second compound 0.1 µM, first compound 1 µM
# [11] = second compound 0.1 µM, first compound 3.16 µM
# [12] = second compound 0.1 µM, first compound 10 µM
# [13] = second compound 0.316 µM, first compound 0.0316 µM
# [14] = second compound 0.316 µM, first compound 0.1 µM
# [15] = second compound 0.316 µM, first compound 0.316 µM
# [16] = second compound 0.316 µM, first compound 1 µM
# [17] = second compound 0.316 µM, first compound 3.16 µM
# [18] = second compound 0.316 µM, first compound 10 µM
# [19] = second compound 1 µM, first compound 0.0316 µM
# [20] = second compound 1 µM, first compound 0.1 µM
# [21] = second compound 1 µM, first compound 0.316 µM
# [22] = second compound 1 µM, first compound 1 µM
# [23] = second compound 1 µM, first compound 3.16 µM
# [24] = second compound 1 µM, first compound 10 µM
# 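Note: spheroids exposed to agents for seven days before readout.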
compound,measurement,setting,value
CC(Cn1ccc(-c2ccc(C#N)c(Cl)c2)n1)NC(=O)c1cc(C(C)O)[nH]n1 (centres undefined) + CC(Nc1ncnc2nc[nH]c12)c1cc2cccc(Cl)c2c(=O)n1-c1ccccc1,IC50,second compound 0.0316 µM,> 10 µM
same,IC50,second compound 0.1 µM,> 10 µM
same,IC50,second compound 0.316 µM,> 10 µM
same,IC50,second compound 1 µM,> 10 µM
same,IC50,second compound 3.16 µM,> 10 µM
same,IC50,second compound 10 µM,> 10 µM
same,"viability, T/C",[1],102%
same,"viability, T/C",[2],92.6%
same,"viability, T/C",[3],96.7%
same,"viability, T/C",[4],90%
same,"viability, T/C",[5],104%
same,"viability, T/C",[6],102%
same,"viability, T/C",[7],105%
same,"viability, T/C",[8],96.9%
same,"viability, T/C",[9],103%
same,"viability, T/C",[10],101%
same,"viability, T/C",[11],106%
same,"viability, T/C",[12],99.4%
same,"viability, T/C",[13],102%
same,"viability, T/C",[14],103%
same,"viability, T/C",[15],104%
same,"viability, T/C",[16],103%
same,"viability, T/C",[17],108%
same,"viability, T/C",[18],97.4%
same,"viability, T/C",[19],99.5%
same,"viability, T/C",[20],102%
same,"viability, T/C",[21],96.4%
same,"viability, T/C",[22],98%
same,"viability, T/C",[23],100%
same,"viability, T/C",[24],106%
same,"viability, T/C","second compound 3.16 µM, first compound 0.0316 µM",98.8%
same,"viability, T/C","second compound 3.16 µM, first compound 0.1 µM",104%
same,"viability, T/C","second compound 3.16 µM, first compound 0.316 µM",100%
same,"viability, T/C","second compound 3.16 µM, first compound 1 µM",104%
same,"viability, T/C","second compound 3.16 µM, first compound 3.16 µM",103%
same,"viability, T/C","second compound 3.16 µM, first compound 10 µM",104%
same,"viability, T/C","second compound 10 µM, first compound 0.0316 µM",105%
same,"viability, T/C","second compound 10 µM, first compound 0.1 µM",95.9%
same,"viability, T/C","second compound 10 µM, first compound 0.316 µM",100%
same,"viability, T/C","second compound 10 µM, first compound 1 µM",99%
same,"viability, T/C","second compound 10 µM, first compound 3.16 µM",109%
same,"viability, T/C","second compound 10 µM, first compound 10 µM",98.7%
CC1(C)CCC(Nc2ncc(C(F)(F)F)c(-c3c[nH]c4c(P(C)(C)=O)c(C#N)ccc34)n2)CN1 (centres undefined) + COc1c(OCCCN2CCOCC2)ccc2c3n(c(=NC(=O)c4cnc(N)nc4)nc12)CCN3,IC50,second compound 0.00316 µM,5.54 µM
same,IC50,second compound 0.01 µM,4.87 µM
same,IC50,second compound 0.0316 µM,4.49 µM
same,IC50,second compound 0.1 µM,3.68 µM
same,IC50,second compound 0.316 µM,< 0.0316 µM
same,IC50,second compound 1 µM,< 0.0316 µM
same,"viability, T/C","second compound 0.00316 µM, first compound 0.0316 µM",85.5%
same,"viability, T/C","second compound 0.00316 µM, first compound 0.1 µM",94.7%
same,"viability, T/C","second compound 0.00316 µM, first compound 0.316 µM",83.8%
same,"viability, T/C","second compound 0.00316 µM, first compound 1 µM",92.7%
same,"viability, T/C","second compound 0.00316 µM, first compound 3.16 µM",85.1%
same,"viability, T/C","second compound 0.00316 µM, first compound 10 µM",12.9%
same,"viability, T/C","second compound 0.01 µM, first compound 0.0316 µM",92.4%
same,"viability, T/C","second compound 0.01 µM, first compound 0.1 µM",92.7%
same,"viability, T/C","second compound 0.01 µM, first compound 0.316 µM",82%
same,"viability, T/C","second compound 0.01 µM, first compound 1 µM",83.1%
same,"viability, T/C","second compound 0.01 µM, first compound 3.16 µM",73.6%
same,"viability, T/C","second compound 0.01 µM, first compound 10 µM",12.7%
same,"viability, T/C",[1],80.7%
same,"viability, T/C",[2],72.5%
same,"viability, T/C",[3],67.7%
same,"viability, T/C",[4],66.3%
same,"viability, T/C",[5],67.1%
same,"viability, T/C",[6],12%
same,"viability, T/C",[7],63.4%
same,"viability, T/C",[8],56.6%
same,"viability, T/C",[9],59.3%
same,"viability, T/C",[10],51.6%
same,"viability, T/C",[11],56.6%
same,"viability, T/C",[12],8.34%
same,"viability, T/C",[13],39.4%
same,"viability, T/C",[14],49.5%
same,"viability, T/C",[15],43.8%
same,"viability, T/C",[16],44.2%
same,"viability, T/C",[17],42.6%
same,"viability, T/C",[18],5.6%
same,"viability, T/C",[19],20.4%
same,"viability, T/C",[20],18.4%
same,"viability, T/C",[21],19.9%
same,"viability, T/C",[22],24.3%
same,"viability, T/C",[23],19.9%
same,"viability, T/C",[24],2.05%
